Source: patent publication US10919941B2, “Functional lipid constructs” (KODE BIOTECH LIMITED, priority 2007, dated 2021)
Each block holds one molecule with its values, some of them ahead of it. No end group written: not given here. *: point of attachment. For = O=C*

Columns and labels:
[1] = 25° C.; cited from earlier work
[2] = test system: Miltenberger Antibody Positive Panel; experiment: Reactivity of modified RBCs against the Miltenberger Antibody Positive Panel; type: cell-based, human; parameters: key to score vs panel 15 TAP2 / score vs panel 4 T7202 / score vs panel 8 T5896 / score vs panel 2 T217 / score vs panel 3 T165 / score vs panel 14 TAP1 / score vs panel 10 Mia / score vs panel 11 Mur / score vs panel 12 Gam / score vs panel 6 T6025 / score vs panel 7 T8445 / score vs panel 9 MIII / score vs panel 13 BoxH / reactivity with Panel Serum #7 (T8445) / agglutination score, Panel Serum #7 (T8445): 0 or ‘−’ no agglutination; 0 or ‘−’ no agglutination; 1+ or 3=very weak agglutination; 1+ or 3=very weak agglutination; 2+ or 5=weak agglutination; 2+ or 5=weak agglutination; 3+ or 8=moderate strong agglutination; 3+ or 8=moderate strong agglutination; 4+ or 10/12=strong agglutination; 4+ or 10/12=strong agglutination; 4+ or 10/12=strong agglutination; conditions: for score vs panel 2 T217 / score vs panel 3 T165 / score vs panel 4 T7202 / score vs panel 8 T5896 / score vs panel 14 TAP1 / score vs panel 15 TAP2: Table 8, construct 50 μg/ml
antibody negative serums = experiment: False positive reactions of modified RBCs with antibody negative serums/plasma; type: cell-based, human; parameters: key to Reaction score BioVue AHG, PAC samples 1-46, 49, 50, 52, 53 / Reaction score BioVue AHG, PAC sample 47 / Reaction score BioVue AHG, PAC sample 48 / Reaction score BioVue AHG, PAC sample 51 / agglutination score, T series serum 2 / agglutination score, T series serum 42 / agglutination score, T series serum 63 / agglutination score, T series serum 62 / agglutination score, T series serum 7 / agglutination score, T series serum 20 / agglutination score, T series serum 48 / agglutination score, T series serum 22 / agglutination score, T series serum 39 / agglutination score, T series serum 23 / agglutination score, T series serum 30 / agglutination score, T series serum 4 / agglutination score, T series serum 31 / agglutination score, T series serum 44 / agglutination score, T series serum 61 / agglutination score, T series serum 18 / agglutination score, T series serum 21 / agglutination score, T series serum 28 / agglutination score, T series serum 55 / agglutination score, false positive serum T18 / agglutination score, false positive serum T21 / agglutination score, false positive serum T28 / agglutination score, false positive serum T55 / agglutination score, false positive serum T78 / agglutination score, false positive serum T92: 0 or ‘−’ no agglutination; 0 or ‘−’ no agglutination; 1+ or 3=very weak agglutination; 1+ or 3=very weak agglutination; 2+ or 5=weak agglutination; 2+ or 5=weak agglutination; 3+ or 8=moderate strong agglutination; 3+ or 8=moderate strong agglutination; 4+ or 10/12=strong agglutination; 4+ or 10/12=strong agglutination; 4+ or 10/12=strong agglutination; conditions: for Reaction score BioVue AHG, PAC sample 47 / Reaction score BioVue AHG, PAC sample 48 / Reaction score BioVue AHG, PAC sample 51 / Reaction score BioVue AHG, PAC samples 1-46, 49, 50, 52, 53: blood donor plasma, construct 50 μg/ml (2 hours, 37° C.); for % False Positives: panel of blood donor plasma samples (PAC), BioVue AHG, construct 50 μg/ml
[3] = test system: TAP1 serum (Taiwan Miltenberger antibody positive sample); experiment: Anti-MUT serum (TAP1) reactivity of modified RBCs (saline and AHG); type: cell-based, human; parameters: key: 0 or ‘−’ no agglutination; 0 or ‘−’ no agglutination; 1+ or 3=very weak agglutination; 1+ or 3=very weak agglutination; 2+ or 5=weak agglutination; 2+ or 5=weak agglutination; 3+ or 8=moderate strong agglutination; 3+ or 8=moderate strong agglutination; 4+ or 10/12=strong agglutination; 4+ or 10/12=strong agglutination; 4+ or 10/12=strong agglutination; conditions: construct 50 μg/ml (2 hours, 37° C.)
Method: (§1) The suspensions are either: • 1. incubated for 2 hours at 37° C. before being washed and suspended in a cell medium for serological analysis at a concentration of 0.8 to 3% (Method 1); or • 2. incubated for 3 to 4 hours at room temperature (circa 25° C.) followed by 18 hours at 4° C. before being washed and suspended in a cell medium for serological analysis at a concentration of 0.8 to 3% (Method 2).
(§2) Serological reactions are graded or scored by either of two established systems (0 or ‘−’ no agglutination, 1+ or 3=very weak agglutination, 2+ or 5=weak agglutination, 3+ or 8=moderate strong agglutination, 4+ or 10/12=strong agglutination)

[4] = test system: Miltenberger antibody positive sera; experiment: BioVue AHG card column agglutination serology of modified red blood cells; type: cell-based, human; parameters: key: 0 or ‘−’ no agglutination; 0 or ‘−’ no agglutination; 1+ or 3=very weak agglutination; 1+ or 3=very weak agglutination; 2+ or 5=weak agglutination; 2+ or 5=weak agglutination; 3+ or 8=moderate strong agglutination; 3+ or 8=moderate strong agglutination; 4+ or 10/12=strong agglutination; 4+ or 10/12=strong agglutination; 4+ or 10/12=strong agglutination; conditions: construct 50 μg/ml
Method: Red blood cells are modified by mixing 1 part by volume of washed packed red blood cells with 1 part by volume of peptide-lipid construct dispersed at a concentration of 10 to 1000 pg/ml in cell media (Celpresol™).
as §1, §2
Serological platforms used are Tube (addition of reagents and reactants into plastic or glass serology tubes and after appropriate incubations, washing and centrifugation observing reactions macroscopically by eye and a 10× magnification eyepiece and scoring) and BioVue™ (addition of reactants into cassettes containing beads (including some reactants) and after appropriate incubations and centrifugation observing the reaction patterns trapped within the Gel matrix). BioVue is the serological column agglutination platform of Ortho-Clinical Diagnostics. Diamed is the serological column agglutination platform of Diamed AG.

[5] = test system: Miltenberger antibody positive samples and false positive antibody negative samples; experiment: Reactivity of RBCs modified with capped peptide-lipid constructs in alternative configurations; type: cell-based; parameters: key: 0 or ‘−’ no agglutination; 0 or ‘−’ no agglutination; 1+ or 3=very weak agglutination; 1+ or 3=very weak agglutination; 2+ or 5=weak agglutination; 2+ or 5=weak agglutination; 3+ or 8=moderate strong agglutination; 3+ or 8=moderate strong agglutination; 4+ or 10/12=strong agglutination; 4+ or 10/12=strong agglutination; 4+ or 10/12=strong agglutination; conditions: capped construct 50 μg/mL, 2 hours at 37° C.
Method: Peptide-lipid constructs comprising CMG(2) and the following peptides were prepared:
The termini of the peptides were formylated and amidated to provide “capped” peptides. The reactivity of random Miltenberger antibody positive samples and three false positive antibody negative samples were tested against RBCs modified to incorporate these “capped” peptide-lipid constructs (50 μg/mL, 2 hours at 37° C.).
The reactivity was assessed and recorded in Table 24. […] However, linkage of the peptide via a Cys residue located at the amino terminus (as opposed to the carboxy terminus) appeared to reduce the likelihood of reactivity with the false-positive antibody negative samples and improve reactivity with the known antibody positive samples.

[6] = biological target: Miltenberger antigen MiIII on natural human red cells (human) (UniProt P02724); experiment: saline phase; cell R1Rz 11291347
[7] = biological target: Miltenberger antigen Vw on natural human red cells (human) (UniProt P02724); experiment: BioVue AHG; cell 9422184
[8] = biological target: Miltenberger antigen MiIII on natural human red cells (human) (UniProt P02724); experiment: AHG; cell Abtectcell III 8245009
[9] = biological target: Miltenberger antigen Mi?X on natural human red cells (human); experiment: BioVue AHG; cell C.BR
[10] = biological target: Miltenberger antigen MiIII on natural human red cells (human) (UniProt P02724); experiment: AHG; cell R2R2 11297161
[11] = biological target: Miltenberger antigen MiIII on natural human red cells (human) (UniProt P02724); experiment: saline phase; cell R2R2 11297161
[12] = biological target: Miltenberger antigen MiIII on natural human red cells (human) (UniProt P02724); experiment: AHG; cell R1Rz 11291347
[13] = biological target: Miltenberger antigen MiIII on natural human red cells (human) (UniProt P02724); experiment: BioVue AHG; cell 11297161

Molecule: O=C(O)CCCC[C@@H]1SC[C@@H]2NC(=O)N[C@@H]21 [Biotin, [3aS-(3aα, 4β, 6aα)]-hexahydro-2-oxo-1H-thieno[3,4-d]imidazole-4-pentanoic acid]
solubility in 95% alcohol [1]: approximately 80 mg/100 mL
solubility in water [1]: approximately 22 mg/100 mL

Molecule: M34: DOPE peptide-lipid construct: MUTK peptide SSQTNDKHKR, leader c, spacer CMG(2) (SSQTNDKHKRC; also: DOPE peptide-lipid construct via leader Cys, spacer CMG(2))
score vs panel 2 T217 [2]: 0
score vs panel 3 T165 [2]: 0
score vs panel 4 T7202 [2]: 0
score vs panel 8 T5896 [2]: 0
score vs panel 14 TAP1 [2]: 3
score vs panel 15 TAP2 [2]: 0
Reaction score BioVue AHG, PAC sample 47 (antibody negative serums): 0
Reaction score BioVue AHG, PAC sample 48 (antibody negative serums): 3
Reaction score BioVue AHG, PAC sample 51 (antibody negative serums): 5
Reaction score BioVue AHG, PAC samples 1-46, 49, 50, 52, 53 (antibody negative serums): 0
% False Positives (antibody negative serums): 3.8%
Reactivity with anti-MUT serum TAP1 [3]: 5
BioVue score vs TAP1 [4]: 5
BioVue score vs positive sample 2 T217 (T) [4]: 0
BioVue score vs positive sample 3 T165 (Mur) [4]: 0
BioVue score vs positive sample 4 T7202 (M) [4]: 0
BioVue score vs positive sample 8 T5896 (M + K + Mur) [4]: 0

Molecule: M36: DOPE peptide-lipid construct: MUTK peptide SQTNDKHKRDT, leader c, spacer CMG(2) (SQTNDKHKRDTC; also: DOPE peptide-lipid construct via leader Cys, spacer CMG(2))
sensitivity and specificity towards a human polyclonal antibody panel compared with sequence 1 ([2]; MUT peptides, prior art sequence 1): superior sensitivity and specificity
score vs panel 2 T217 [2]: 0
score vs panel 3 T165 [2]: 0
score vs panel 4 T7202 [2]: 0
score vs panel 8 T5896 [2]: 0
score vs panel 14 TAP1 [2]: 8
score vs panel 15 TAP2 [2]: 0
Reaction score BioVue AHG, PAC sample 47 (antibody negative serums): 3
Reaction score BioVue AHG, PAC sample 48 (antibody negative serums): 5
Reaction score BioVue AHG, PAC sample 51 (antibody negative serums): 0
Reaction score BioVue AHG, PAC samples 1-46, 49, 50, 52, 53 (antibody negative serums): 0
% False Positives (antibody negative serums): 3.8%
Reactivity with anti-MUT serum TAP1 [3]: 8
BioVue score vs TAP1 [4]: 8
BioVue score vs positive sample 2 T217 (T) [4]: 0
BioVue score vs positive sample 3 T165 (Mur) [4]: 0
BioVue score vs positive sample 4 T7202 (M) [4]: 0
BioVue score vs positive sample 8 T5896 (M + K + Mur) [4]: 0

Molecule: M45: capped peptide-lipid construct comprising CMG(2) and CysThrTyrProAlaHisThrAlaAsnGlu (For-CTYPAHTANE-NH2; also: capped peptide-lipid construct comprising CMG(2))
agglutination score, antibody positive serum 55 [5]: 8
agglutination score, antibody positive serum 61 [5]: 5
agglutination score, antibody positive serum 65 [5]: 8
agglutination score, antibody positive serum 67 [5]: 10
agglutination score, antibody positive serum 68 [5]: 0
agglutination score, antibody positive serum 71 [5]: 10
agglutination score, antibody positive serum 942-433813-3 [5]: 5
agglutination score, false-positive antibody negative serum PAC302 [5]: 0
agglutination score, false-positive antibody negative serum PAC332 [5]: 0
agglutination score, false-positive antibody negative serum PAC340 [5]: 0

Molecule: M44: capped peptide-lipid construct comprising CMG(2) and ThrTyrProAlaHisThrAlaAsnGluCys (For-TYPAHTANEC-NH2; also: capped peptide-lipid construct comprising CMG(2))
agglutination score, antibody positive serum 55 [5]: 8
agglutination score, antibody positive serum 61 [5]: 8
agglutination score, antibody positive serum 65 [5]: 10
agglutination score, antibody positive serum 67 [5]: 8
agglutination score, antibody positive serum 68 [5]: 0
agglutination score, antibody positive serum 71 [5]: 10
agglutination score, antibody positive serum 942-433813-3 [5]: 0
agglutination score, false-positive antibody negative serum PAC302 [5]: 5
agglutination score, false-positive antibody negative serum PAC332 [5]: 12
agglutination score, false-positive antibody negative serum PAC340 [5]: 5

agglutination score [6]: 8
agglutination score [7]: 5
agglutination score [8]: 10
agglutination score [9]: 12
agglutination score [10]: 10
agglutination score [11]: 8
agglutination score [12]: 10
agglutination score [13]: 10
Molecule: TAP1
